# Test results from PubChem BioAssay AID2060604 (Molecular Pharmacology Branch, DTP, NCI, 2025).
# Several values for one entry are separate records, joined by “and”; a condition that tells them apart may be missing. Equal entries are not always repeated.
# System: 379773-124-R-J2-PDC complex spheroids, viability % test/control
# Test: Anticancer human tumor 379773-124-R-J2-PDC patient-derived endometrial carcinoma cell line growth inhibition [CLK]
# Details: for viability, T/C: stronger effect = lower value
# From the text: A high-throughput screen of multi-cell type tumor spheroids was designed to identify active combinations of […] and targeted small molecules. Complex spheroids include a stromal component modeled by human endothelial cells (HUVEC) and fibroblasts modeled by human mesenchymal stem cells (MSCs). The concentration ranges selected for each drug and investigational agent were based upon clinically achievable concentrations if the clinical Cmax of the agent was known.
# Compounds. The drugs and investigational agents: cirtuvivint (SM08502; NSC835563), CC-671 (NSC850746), vemurafenib (NSC761431), tapotoclax (NSC804041), sotorasib (NSC818433), adagrasib (NSC831453), MRTX-1133 (NSC836407), BAY2416964 (NSC825713), copanlisib (NSC816437), inavolisib (NSC800729), abemaciclib (NSC768073), osimertinib (NSC779217), entinostat (NSC756642), eltanexor (KPT-8602, NSC794443), venetoclax (NSC766270), ceralasertib (NSC777638), bortezomib (NSC756655), olaparib (NSC753686), talazoparib (NSC767125), alisertib (NSC759677), peposertib (NSC802822), gemcitabine (NSC613327), 5-fluorouracil (NSC19893), SN-38 (NSC673596), oxaliplatin (NSC266046), paclitaxel (NSC125973), and doxorubicin (NSC123127), were obtained from the National Cancer Institute (NCI) Developmental Therapeutics Program Chemical Repository. The FDA-approved anticancer drug set is available from the Developmental Therapeutics Program at https://dtp.cancer.gov/organization/dscb/obtaining/available plates.htm. […] The stock solutions were prepared in dimethyl sulfoxide (DMSO, Sigma-Aldrich, St. Louis, MO, cat. D2650), except for the platinum complexes which were prepared in saline (Quality Biological, Gaithersburg, MD, cat. 114-055-101), at 800-fold the tested concentration and stored at -70 degrees C prior to their use. All drugs and investigational agents were tested over a range starting from a high concentration at or near the clinical Cmax and decreasing in half-log increments. If the clinical Cmax for an agent had not been determined, the highest concentration tested was 10 microM.
# Cell Culture. All cells were maintained in an incubator at 37 degrees C and 5% CO2 with 95% humidity. The PDC lines were cultured according to standard operating procedures established by the NCI PDMR. Briefly, all PDCs were thawed and cultured in Matrigel-coated flasks prepared with a working solution of 1X Ham's F-12 nutrient mix, without supplementation (Invitrogen, Waltham, MA, cat. 11765054), 100 U/mL penicillin-streptomycin (Invitrogen, cat. 15140122), and 2.5% Matrigel (Corning Inc., Corning, NY, cat. 354248) for the first three passages. The 947758-054-R-J2-PDC line was cultured in 6B/Colon 1A media, which includes advanced DMEM/F-12 (Thermo Fisher Scientific, cat. 12634028), 10 mM HEPES (Thermo Fisher Scientific, cat. 15630080), 1X GlutaMAX supplement (Thermo Fisher Scientific, cat. 35050061), 0.1 mg/mL primocin (InvivoGen, cat. ant-pm-2), 10% defined fetal bovine serum, heat inactivated (HyClone Laboratories Inc., cat. SH30070.03HI), 1.25 mM N-Acetyl-L-cysteine (Sigma-Aldrich, cat. A9165), 10 mM nicotinamide (Sigma-Aldrich, cat. N0636), 1X B-27 supplement (Thermo Fisher Scientific, cat. 17504044), 1X N-2 supplement (Thermo Fisher Scientific, cat. 17502048), and 10 microM Y-27632 dihydrochloride (Tocris Bioscience, cat. 1254). The 876862-298-R-J1-PDC was cultured in 6E media, which includes all 6B/Colon 1A media components plus 50% L-WRN conditioned media (ATCC, cat. CRL-3276), 50 ng/mL recombinant human EGF recombinant protein (hEGF; Thermo Fisher Scientific, cat. PHG0311), 10 ng/mL recombinant human fibroblast growth factor 10 (hGFG-10; PeproTech, cat. 100-26), 1 ng/mL recombinant human fibroblast growth factor 2 (hFGF-2; PeproTech, cat. 100-18B), and 1 µM prostaglandin E2 (PGE2; Tocris, cat. 2296). The 227483-062-R1-J1-PDC line was cultured in Panc media, containing all 6E components except hFGF-2, with the addition of 500 nM SB-431542 (Selleckchem, cat. S1067) and 10 nM gastrin (Tocris, cat. 3006). […]
# 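Further: compound exposure lasted seven days before the viability readout.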
# 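Wherever viability, T/C is given: 100% = DMSO vehicle control wells.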
smiles,measurement,setting,value
CC(=O)O[C@H]1C(=O)[C@@]2(C)[C@H]([C@H](OC(=O)c3ccccc3)[C@]3(O)C[C@H](OC(=O)[C@H](O)[C@@H](NC(=O)c4ccccc4)c4ccccc4)C(C)=C1C3(C)C)[C@]1(OC(C)=O)CO[C@@H]1C[C@@H]2O + CN1CCN(c2cc(C(=O)Nc3cc4cc(-c5cnn(C)c5)ccc4cn3)ccn2)CC1,IC50,"curve of first compound, second compound 0.0316 µM",< 31.6 nM
same,IC50,"curve of first compound, second compound 0.1 µM",< 31.6 nM
same,IC50,"curve of first compound, second compound 0.316 µM",< 31.6 nM
same,IC50,"curve of first compound, second compound 1 µM",< 31.6 nM
same,IC50,"curve of first compound, second compound 3.16 µM",< 31.6 nM
same,IC50,"curve of first compound, second compound 10 µM",< 31.6 nM
same,"viability, T/C","second compound 0.0316 µM, first compound 0.0316 µM",7.03%
same,"viability, T/C","second compound 0.0316 µM, first compound 0.1 µM",7.96%
same,"viability, T/C","second compound 0.0316 µM, first compound 0.316 µM",7.37%
same,"viability, T/C","second compound 0.0316 µM, first compound 1 µM",6.76%
same,"viability, T/C","second compound 0.0316 µM, first compound 3.16 µM",6.08%
same,"viability, T/C","second compound 0.0316 µM, first compound 10 µM",6.39%
same,"viability, T/C","second compound 0.1 µM, first compound 0.0316 µM",5.82%
same,"viability, T/C","second compound 0.1 µM, first compound 0.1 µM",7.72%
same,"viability, T/C","second compound 0.1 µM, first compound 0.316 µM",7.07%
same,"viability, T/C","second compound 0.1 µM, first compound 1 µM",6.35%
same,"viability, T/C","second compound 0.1 µM, first compound 3.16 µM",6.66%
same,"viability, T/C","second compound 0.1 µM, first compound 10 µM",8.15%
same,"viability, T/C","second compound 0.316 µM, first compound 0.0316 µM",5.25%
same,"viability, T/C","second compound 0.316 µM, first compound 0.1 µM",5.87%
same,"viability, T/C","second compound 0.316 µM, first compound 0.316 µM",5.15%
same,"viability, T/C","second compound 0.316 µM, first compound 1 µM",5.39%
same,"viability, T/C","second compound 0.316 µM, first compound 3.16 µM",7.05%
same,"viability, T/C","second compound 0.316 µM, first compound 10 µM",7.94%
same,"viability, T/C","second compound 1 µM, first compound 0.0316 µM",0.07%
same,"viability, T/C","second compound 1 µM, first compound 0.1 µM",0.08%
same,"viability, T/C","second compound 1 µM, first compound 0.316 µM",0.18%
same,"viability, T/C","second compound 1 µM, first compound 1 µM",1.42%
same,"viability, T/C","second compound 1 µM, first compound 3.16 µM",0.21%
same,"viability, T/C","second compound 1 µM, first compound 10 µM",0.05%
same,"viability, T/C","second compound 3.16 µM, first compound 0.0316 µM",0.21%
same,"viability, T/C","second compound 3.16 µM, first compound 0.1 µM",0.13%
same,"viability, T/C","second compound 3.16 µM, first compound 0.316 µM",2.68%
same,"viability, T/C","second compound 3.16 µM, first compound 1 µM",0.06%
same,"viability, T/C","second compound 3.16 µM, first compound 3.16 µM",0.46%
same,"viability, T/C","second compound 3.16 µM, first compound 10 µM",0.1%
same,"viability, T/C","second compound 10 µM, first compound 0.0316 µM",0.05%
same,"viability, T/C","second compound 10 µM, first compound 0.1 µM",1.24%
same,"viability, T/C","second compound 10 µM, first compound 0.316 µM",0.14%
same,"viability, T/C","second compound 10 µM, first compound 1 µM",0.91%
same,"viability, T/C","second compound 10 µM, first compound 3.16 µM",0.48%
same,"viability, T/C","second compound 10 µM, first compound 10 µM",0.46%
CC1(C)CCC(CN2CCN(c3ccc(C(=O)NS(=O)(=O)c4ccc(NCC5CCOCC5)c([N+](=O)[O-])c4)c(Oc4cnc5[nH]ccc5c4)c3)CC2)=C(c2ccc(Cl)cc2)C1,"viability, T/C",compound 0.0316 µM,89.8% and 83.7%
same,"viability, T/C",compound 0.1 µM,92.6% and 89.4%
same,"viability, T/C",compound 0.316 µM,96.8% and 94%
same,"viability, T/C",compound 1 µM,96.9% and 111%
same,"viability, T/C",compound 3.16 µM,77.8% and 79.7%
same,"viability, T/C",compound 10 µM,3.91% and 4.86%
same,IC50,curve of compound,4880 nM and 4990 nM
